In US20220347175A1, “PYRIDAZINONE DERIVATIVE” (Sumitomo Dainippon Pharma Co., Ltd., priority 2018, published 2022):
Blank lines part the entries; values can stand above or below the compound they belong to.

Legend:
human Nav1.1 = molecular target: T1, human Nav1.1 (Homo sapiens, UniProt P35498); assay: Amplification of Nav1.1-derived voltage-dependent sodium current (Nav1.1 current), cell line stably expressing human Nav1.1, automated patch clamp; format: cell-based
T1 construct: host or cells: HEK293
Procedure, shortened: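 Amplification rate (%) is 100 × post-compound/pre-compound Nav1.1 peak current or AUC, minus 100. Ramp-evoked sodium currents were recorded by automated patch clamp in a human Nav1.1 HEK293 stable line, restricted to cells exceeding 500 pA, with compounds added in extracellular solution containing 1% DMSO.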

human Nav1.5 = molecular target: T2, human Nav1.5 (Homo sapiens, UniProt Q14524); assay: Amplification of Nav1.5-derived voltage-dependent sodium current (Nav1.5 current), cell line stably expressing human Nav1.5, automated patch clamp; format: cell-based
T2 construct: expressed in transfected cells; host or cells: CHO-K1 (T-REx System, ThermoFisher Scientific)

[1] = 10 μmol/L compound, change of the area under the curve of Nav1.1 current (Test Result 1), read-out: Nav1.1 current amplification rate (%)
[2] = 10 μmol/L compound, change of the area under the curve of Nav1.5 current (Test Result 1), read-out: Nav1.5 current amplification rate (%)
[3] = compound 3 μmol/L, HEK293 stably expressing human Nav1.1
[4] = compound 3 μmol/L, CHO-K1 stably expressing human Nav1.5
[5] = compound 1 μmol/L, HEK293 stably expressing human Nav1.1
[6] = compound 1 μmol/L, CHO-K1 stably expressing human Nav1.5
[7] = 10 μmol/L compound, change of the area under the curve of Nav1.1 current (Test Result 1)
[8] = 10 μmol/L compound, change of the area under the curve of Nav1.5 current (Test Result 1)

T2 sequence (Q14524 1-2015 isoform Q14524-2): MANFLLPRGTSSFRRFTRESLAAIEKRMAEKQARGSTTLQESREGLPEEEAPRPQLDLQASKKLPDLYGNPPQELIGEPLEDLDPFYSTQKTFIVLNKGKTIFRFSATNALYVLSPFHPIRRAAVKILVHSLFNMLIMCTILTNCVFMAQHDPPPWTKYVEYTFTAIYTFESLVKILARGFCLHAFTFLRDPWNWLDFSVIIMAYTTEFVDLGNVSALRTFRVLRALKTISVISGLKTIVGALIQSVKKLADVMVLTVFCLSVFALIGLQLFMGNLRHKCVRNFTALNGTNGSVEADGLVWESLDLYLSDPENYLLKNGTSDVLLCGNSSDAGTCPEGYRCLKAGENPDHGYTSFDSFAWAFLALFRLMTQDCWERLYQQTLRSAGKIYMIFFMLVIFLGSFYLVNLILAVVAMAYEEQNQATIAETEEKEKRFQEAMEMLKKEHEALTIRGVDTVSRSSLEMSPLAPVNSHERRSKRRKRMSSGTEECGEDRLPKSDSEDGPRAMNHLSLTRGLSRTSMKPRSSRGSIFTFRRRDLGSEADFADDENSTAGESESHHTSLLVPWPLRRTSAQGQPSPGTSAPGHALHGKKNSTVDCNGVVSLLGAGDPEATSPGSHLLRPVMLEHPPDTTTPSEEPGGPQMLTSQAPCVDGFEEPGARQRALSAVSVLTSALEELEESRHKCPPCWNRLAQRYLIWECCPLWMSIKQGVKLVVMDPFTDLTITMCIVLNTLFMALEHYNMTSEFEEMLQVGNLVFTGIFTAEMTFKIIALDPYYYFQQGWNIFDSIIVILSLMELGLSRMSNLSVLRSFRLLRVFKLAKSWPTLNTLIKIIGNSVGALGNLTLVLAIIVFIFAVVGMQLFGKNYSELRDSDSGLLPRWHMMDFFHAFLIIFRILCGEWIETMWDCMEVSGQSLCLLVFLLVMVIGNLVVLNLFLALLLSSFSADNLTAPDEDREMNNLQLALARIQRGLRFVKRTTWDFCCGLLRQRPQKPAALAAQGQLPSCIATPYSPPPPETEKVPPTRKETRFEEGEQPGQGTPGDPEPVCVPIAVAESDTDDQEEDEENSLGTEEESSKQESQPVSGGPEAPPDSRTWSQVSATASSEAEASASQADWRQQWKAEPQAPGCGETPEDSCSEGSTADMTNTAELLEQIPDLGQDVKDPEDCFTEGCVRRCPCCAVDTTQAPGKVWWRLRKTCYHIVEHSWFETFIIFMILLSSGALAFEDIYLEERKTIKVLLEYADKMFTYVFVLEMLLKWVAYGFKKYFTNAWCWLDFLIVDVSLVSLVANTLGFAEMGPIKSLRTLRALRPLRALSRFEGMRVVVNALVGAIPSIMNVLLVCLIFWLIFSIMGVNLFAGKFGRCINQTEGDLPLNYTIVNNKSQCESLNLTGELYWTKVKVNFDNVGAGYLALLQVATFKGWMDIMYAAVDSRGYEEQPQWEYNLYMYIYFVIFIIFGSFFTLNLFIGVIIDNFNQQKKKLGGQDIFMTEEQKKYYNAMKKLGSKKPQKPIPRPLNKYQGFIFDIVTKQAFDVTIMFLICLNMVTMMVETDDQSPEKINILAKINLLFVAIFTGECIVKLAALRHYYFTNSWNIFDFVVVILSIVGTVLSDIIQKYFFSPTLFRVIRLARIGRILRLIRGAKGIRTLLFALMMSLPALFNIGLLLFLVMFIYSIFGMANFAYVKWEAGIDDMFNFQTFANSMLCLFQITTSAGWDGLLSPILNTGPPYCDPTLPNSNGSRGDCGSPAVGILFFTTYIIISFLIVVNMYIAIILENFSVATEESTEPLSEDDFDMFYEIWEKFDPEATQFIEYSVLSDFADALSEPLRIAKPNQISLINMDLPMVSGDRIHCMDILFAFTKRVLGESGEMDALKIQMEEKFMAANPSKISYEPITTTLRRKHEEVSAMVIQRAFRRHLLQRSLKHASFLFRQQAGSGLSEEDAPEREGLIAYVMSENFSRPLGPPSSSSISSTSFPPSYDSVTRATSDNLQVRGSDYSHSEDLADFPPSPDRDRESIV

activation at 10 µM (human Nav1.1; [1]): 137%
Compound: CC1(C)CCN(c2ccc(=O)n(CC(=O)Nc3ccn4ccnc4c3)n2)CC1 [Example 192]
activation at 10 µM (human Nav1.5; [2]): 2%

activation at 10 µM (human Nav1.1; [1]): 25%
Compound: CC1CCN(c2ccc(=O)n(CC(=O)Nc3ccc(C(=O)N4CCCC4)nc3)n2)CC1 [Example 217]
activation at 10 µM (human Nav1.5; [2]): 1%

Nav1.1 current amplification rate (%) (human Nav1.1; [3]): 154%
Compound: Cc1cc(NC(=O)Cn2nc(C3=CCC(C)CC3)ccc2=O)cc2ncoc12 (racemic) [Example 323]
Nav1.5 current amplification rate (%) (human Nav1.5; [4]): 11%

Nav1.1 current amplification rate (%) (human Nav1.1; [5]): 84%
Compound: CC1CC=C(c2ccc(=O)n(CC(=O)Nc3ccnc(N4CCOCC4)c3F)n2)CC1 (racemic) [Example 383]
Nav1.5 current amplification rate (%) (human Nav1.5; [6]): 51%

Nav1.1 current amplification rate (%) (human Nav1.1; [7]): 103%
Compound: COc1nc2cc(NC(=O)Cn3nc(N4CCC(C)CC4)ccc3=O)ccc2o1 [Example 99]
Nav1.5 current amplification rate (%) (human Nav1.5; [8]): 4%

Nav1.1 current amplification rate (%) (human Nav1.1; [7]): 286%
Compound: CC1CC=C(c2ccc(=O)n(CC(=O)N3CCN(c4cncc(C(F)(F)F)c4)CC3)n2)CC1 (racemic) [Example 401]
Nav1.5 current amplification rate (%) (human Nav1.5; [8]): 5%

Nav1.1 current amplification rate (%) (human Nav1.1; [3]): 115%
Compound: CC1CC=C(c2ccc(=O)n(CC(=O)Nc3cccc(N4CCOCC4)c3F)n2)CC1 (racemic) [Example 322]
Nav1.5 current amplification rate (%) (human Nav1.5; [4]): 18%

Nav1.1 current amplification rate (%) (human Nav1.1; [3]): 104%
Compound: CCN1CC(c2cccc3c2CCN3C(=O)Cn2nc(C3=CCC(C)CC3)ccc2=O)C1 (racemic) [Example 302]
Nav1.5 current amplification rate (%) (human Nav1.5; [4]): 79%

Nav1.1 current amplification rate (%) (human Nav1.1; [5]): 130%
Compound: CC1CC=C(c2ccc(=O)n(CC(=O)Nc3ccc4ncncc4c3)n2)CC1 (racemic) [Example 355]
Nav1.5 current amplification rate (%) (human Nav1.5; [6]): 28%

Nav1.1 current amplification rate (%) (human Nav1.1; [3]): 140%
Compound: CC1CC=C(c2ccc(=O)n(CC(=O)N3CCc4c(C5CN(C)C5)cccc43)n2)CC1 (racemic) [Example 300]
Nav1.5 current amplification rate (%) (human Nav1.5; [4]): 55%

activation at 10 µM (human Nav1.1; [1]): 227%
Compound: O=C(Cn1nc(N2CCC3(CCC3)C2)ccc1=O)Nc1ccc2ocnc2c1 [Example 131]
activation at 10 µM (human Nav1.5; [2]): 7%

Nav1.1 current amplification rate (%) (human Nav1.1; [7]): 102%
Compound: COc1cnc(C2=CCN(C(=O)Cn3nc(C4=CCC(C)CC4)ccc3=O)CC2)cn1 (racemic) [Example 399]
Nav1.5 current amplification rate (%) (human Nav1.5; [8]): 11%

Nav1.1 current amplification rate (%) (human Nav1.1; [5]): 110%
Compound: O=C(Cn1nc(C2=CCCCC2)ccc1=O)N1CCc2c(N3CCOCC3)cccc21 [Example 480]
Nav1.5 current amplification rate (%) (human Nav1.5; [6]): 7%

activation at 10 µM (human Nav1.1; [1]): 117%
Compound: O=C(Cn1nc(N2CCC3(CCC3)C2)ccc1=O)Nc1ccc2c(c1)OCC2 [Example 172]
activation at 10 µM (human Nav1.5; [2]): 4%

Compound: CC1CCN(c2ccc(=O)n(CC(=O)Nc3ccnc(C#N)c3)n2)CC1 [Example 53]
Nav1.1 current amplification rate (%) (human Nav1.1; [7]): 161%
Nav1.5 current amplification rate (%) (human Nav1.5; [8]): 11%

Nav1.1 current amplification rate (%) (human Nav1.1; [7]): 221%
Compound: Cc1cc(C2=CCC(C)(C)CC2)nn(CC(=O)Nc2ccn3ccnc3c2)c1=O [Example 460]
Nav1.5 current amplification rate (%) (human Nav1.5; [8]): 46%

activation at 10 µM (human Nav1.1; [1]): 195%
Compound: O=C(Cn1nc(N2CCC3(CCCC3)CC2)ccc1=O)Nc1ccc2ocnc2c1 [Example 135]
activation at 10 µM (human Nav1.5; [2]): 2%

activation at 10 µM (human Nav1.1; [1]): 205%
Compound: O=C(Cn1nc(N2CCC3(CCC3)CC2)ccc1=O)Nc1ccn2ccnc2c1 [Example 168]
activation at 10 µM (human Nav1.5; [2]): 23%

activation at 10 µM (human Nav1.1; [1]): 44%
Compound: Cc1c(N2CCC(C)(C)CC2)nn(CC(=O)Nc2ccn3ccnc3c2)c(=O)c1C [Example 178]
activation at 10 µM (human Nav1.5; [2]): 1%

Nav1.1 current amplification rate (%) (human Nav1.1; [3]): 23%
Compound: CC1CC=C(c2ccc(=O)n(CC(=O)N3C[C@H](C)N(c4cccnc4)C[C@H]3C)n2)CC1 (stereo partly shown) [Example 417]
Nav1.5 current amplification rate (%) (human Nav1.5; [4]): 1%

activation at 10 µM (human Nav1.1; [1]): 184%
Compound: N#Cc1ccc(NC(=O)Cn2nc(N3CCC4(CCCC4)C3)ccc2=O)cn1 [Example 121]
activation at 10 µM (human Nav1.5; [2]): 98%

activation at 3 µM (human Nav1.1; compound 3 μmol/L, HEK293 stably expressing human Nav1.1, read-out: Nav1.1 current amplification rate (%)): 50%
Compound: COc1ncc(C2=CCN(C(=O)Cn3nc(C4=CCC(C(F)(F)F)CC4)ccc3=O)CC2)cn1 (stereo not shown) [Example 510]
activation at 3 µM (human Nav1.5; compound 3 μmol/L, CHO-K1 stably expressing human Nav1.5, read-out: Nav1.5 current amplification rate (%)): 7%

Compound: CC1CCN(c2ccc(=O)n(CC(=O)Nc3ccc(C#N)nc3)n2)CC1 [Example 51]
Nav1.1 current amplification rate (%) (human Nav1.1; [7]): 196%
Nav1.5 current amplification rate (%) (human Nav1.5; [8]): 31%
